The results in this text go back to US20250296916A1, “BICYCLIC PIPERAZINONES AND THERAPEUTIC USES THEREOF” (Cytokinetics, Inc., priority 2022, published 2025).

In the assay the test system is rabbit skeletal myofibrils (approximately 90% fast fibers). In words: Activation of fast skeletal myofibrils (PUMA coupled-enzyme ATPase assay). Format: biochemical. The settings on record: concentration at which the compound increased the enzymatic activity by 40%; calcium at pCa25; PM12 buffer pH 6.8. The method, then: Preparation of fast skeletal myofibrils: Rabbit skeletal myofibrils were prepared based upon the method of Herrmann et al. (Biochem. 32 (28): 7255-7263 (1993). Myofibrils were prepared from rabbit psoas muscle purchased from Pel-Freez Biologicals (Arkansas) within 2 days of ordering, stored on ice. Minced muscle was homogenized in 10 volumes of ice-cold “standard” buffer (50 mM Tris, pH 7.4, 0.1 M KOAc, 5 mM KCl, 2 mM dithiothreitol (DTT), 0.2 mM phenylmethylsulfonyl fluoride (PMSF), 10 μM leupeptin, 5 μM pepstatin, and 0.5 mM sodium azide) containing 5 mM ethylenediaminetetraacetic acid (EDTA) and 0.5% Triton X-100 using an Omni-Macro homogenizer. Myofibrils were recovered by low speed centrifugation (3000 rpm for 10 minutes) and washed 2 times in the Triton X-100 containing buffer to ensure removal of cellular membrane. Following the Triton washes, myofibrils were washed 3 times in “standard” buffer containing 2 mM magnesium acetate. A final wash in assay buffer (12 mM piperazine-1,4-bis(2-ethanesulfonic acid) (PIPES), pH 6.8, 60 mM KCl, 1 mM DTT) was performed and brought to 10% sucrose for flash freezing in liquid nitrogen and storage at −80° C.
Activation of Fast Skeletal Myofibrils: Fast fiber activators were identified by measuring the enzymatic activity of muscle myofibril preparations using the proprietary PUMA (trademark) (see, e.g., U.S. Pat. Nos. 6,410,254, 6,743,599, 7,202,051, and 7,378,254) assay system. Myofibril preparations consisted of rabbit skeletal muscle (approximately 90% fast fibers) that had been mechanically homogenized and washed with a detergent (Triton X-100) to remove cellular membranes. This preparation retained all of the sarcomeric components in a native conformation and the enzymatic activity was still regulated by calcium. Compounds were tested using a myofibril suspension and a level of calcium sufficient to increase enzymatic activity of the myofibrils to 25% of their maximal rate (termed pCa25). Enzymatic activity was tracked via a pyruvate kinase and lactate dehydrogenase-coupled enzyme system. This assay regenerates myosin-produced ADP into ATP by oxidizing NADH, producing an absorbance change at 340 nm. The buffering system was 12 mM PIPES, 2 mM MgCl2, 1 mM DTT at pH 6.8 (PM12 buffer). […] In Table 3, “Example Compound” refers to the compound labeled with the same number in Table 2.
On to `CC(C)C[C@H]1C(=O)Nc2cnccc2N1C(=O)c1cnn(C)c1` [Compound 96, (S)-2-isobutyl-1-(1-methyl-1H-pyrazole-4-carbonyl)-1,4-dihydropyrido[3,4-b]pyrazin-3(2H)-one], for which the AC1.4 worked out at 0.6 µM. Next, `CCC[C@H]1C(=O)Nc2ccccc2N1C(=O)c1cccnc1` [Compound 12, (S)-4-nicotinoyl-3-propyl-3,4-dihydroquinoxalin-2(1H)-one]: 1.55 µM; `CCC[C@H]1C(=O)Nc2ccccc2N1C(=O)Nc1ccc(F)cc1` [Compound 58, (S)-N-(4-fluorophenyl)-3-oxo-2-propyl-3,4-dihydroquinoxaline-1(2H)-carboxamide]: 0.26 µM; `CC[C@H](C)[C@H]1C(=O)Nc2ccccc2N1C(=O)c1ccc(=O)[nH]c1` [Compound 75, (S)-3-((S)-sec-butyl)-4-(6-oxo-1,6-dihydropyridine-3-carbonyl)-3,4-dihydroquinoxalin-2(1H)-one]: 0.05 µM.

Regarding `CC[C@H](C)[C@H]1C(=O)Nc2ncccc2N1C(=O)c1cnn(C)c1` [Compound 95, (S)-2-((S)-sec-butyl)-1-(1-methyl-1H-pyrazole-4-carbonyl)-1,4-dihydropyrido[2,3-b]pyrazin-3(2H)-one], the AC1.4 amounted to 0.84 µM. As to `CCC[C@H]1C(=O)Nc2ccccc2N1C(=O)c1ccc(NCc2ccccc2)nc1` [Compound 36, (S)-4-(6-(benzylamino)nicotinoyl)-3-propyl-3,4-dihydroquinoxalin-2(1H)-one], the AC1.4 was found to be 0.65 µM. Next, `CCC[C@H]1C(=O)Nc2ccccc2N1C(=O)c1cn(C)nc1C` [Compound 45, (S)-4-(1,3-dimethyl-1H-pyrazole-4-carbonyl)-3-propyl-3,4-dihydroquinoxalin-2(1H)-one]: 0.2 µM; `CCC[C@H]1C(=O)Nc2ccccc2N1C(=O)c1cn[nH]c1` [Compound 71, (S)-3-propyl-4-(1H-pyrazole-4-carbonyl)-3,4-dihydroquinoxalin-2(1H)-one]: 0.54 µM; `CC[C@H](C)[C@H]1C(=O)Nc2ccccc2N1C(=O)N1CC(F)(F)C1` [Compound 117, (S)-3-((S)-sec-butyl)-4-(3,3-difluoroazetidine-1-carbonyl)-3,4-dihydroquinoxalin-2(1H)-one]: 1.24 µM. On to `CCC[C@H]1C(=O)Nc2ccccc2N1C(=O)c1ccc(F)c(F)c1` [Compound 21, (S)-4-(3,4-difluorobenzoyl)-3-propyl-3,4-dihydroquinoxalin-2(1H)-one], for which the AC1.4 was 0.07 µM. With `CC[C@H](C)[C@H]1C(=O)Nc2ccccc2N1C(=O)N1CCC[C@H](CO)C1` [Compound 116, (S)-3-((S)-sec-butyl)-4-((S)-3-(hydroxymethyl)piperidine-1-carbonyl)-3,4-dihydroquinoxalin-2(1H)-one], the AC1.4 was found to be 0.83 µM. On to `CCC[C@H]1C(=O)Nc2ccccc2N1C(=O)c1cncc(Cl)c1` [Compound 20, (S)-4-(5-chloronicotinoyl)-3-propyl-3,4-dihydroquinoxalin-2(1H)-one], for which the AC1.4 worked out at 1.52 µM. In the case of `CCC[C@H]1C(=O)Nc2ccccc2N1C(=O)c1ccncc1` [Compound 11, (S)-4-isonicotinoyl-3-propyl-3,4-dihydroquinoxalin-2(1H)-one], the AC1.4 stood at 0.97 µM. `CC(C)[C@H]1C(=O)Nc2ccccc2N1C(=O)c1cnn(C2CC2)c1` [Compound 84, (S)-4-(1-cyclopropyl-1H-pyrazole-4-carbonyl)-3-isopropyl-3,4-dihydroquinoxalin-2(1H)-one]: the AC1.4 was 0.29 µM. In the case of `CC[C@H](C)[C@H]1C(=O)Nc2ccccc2N1C(=O)N[C@H]1C[C@@H](O)C1` [Compound 133, (S)-2-((S)-sec-butyl)-N-((1s,3R)-3-hydroxycyclobutyl)-3-oxo-3,4-dihydroquinoxaline-1(2H)-carboxamide] it was 1.68 µM; in that of `CCC[C@H]1C(=O)Nc2ccccc2N1C(=O)c1ccc(N(C)CCC(F)(F)F)nc1` [Compound 44, (S)-4-(6-(methyl(3,3,3-trifluoropropyl)amino)nicotinoyl)-3-propyl-3,4-dihydroquinoxalin-2(1H)-one], 2.61 µM; in that of `CCC[C@H]1C(=O)Nc2ccccc2N1C(=O)NCc1ccccc1` [Compound 49, (S)-N-benzyl-3-oxo-2-propyl-3,4-dihydroquinoxaline-1(2H)-carboxamide], 2.08 µM. In the case of `CC[C@H](C)[C@H]1C(=O)Nc2cccnc2N1C(=O)c1ccc(=O)n(C)c1` [Compound 92, (S)-3-((S)-sec-Butyl)-4-(1-methyl-6-oxo-1,6-dihydropyridine-3-carbonyl)-3,4-dihydropyrido[2,3-b]pyrazin-2(1H)-one] it was 1.03 µM; in that of `CCC[C@H]1C(=O)Nc2ccccc2N1C(=O)Nc1ccc(C)cc1` [Compound 62, (S)-3-oxo-2-propyl-N-(p-tolyl)-3,4-dihydroquinoxaline-1(2H)-carboxamide], 1.39 µM. Turning to `CC[C@H](C)[C@H]1C(=O)Nc2ccccc2N1C(=O)c1cnn(CC(N)=O)c1` [Compound 80, 2-(4-((S)-2-((S)-sec-butyl)-3-oxo-1,2,3,4-tetrahydroquinoxaline-1-carbonyl)-1H-pyrazol-1-yl)acetamide], the AC1.4 worked out at 0.63 µM.

For `CCC[C@H]1C(=O)Nc2ccccc2N1C(=O)c1ccc(Cl)nc1` [Compound 5, (S)-4-(6-chloronicotinoyl)-3-propyl-3,4-dihydroquinoxalin-2(1H)-one], the AC1.4 is 0.38 µM. Regarding `CC[C@H](C)[C@H]1C(=O)Nc2cnccc2N1C(=O)c1ccc(=O)[nH]c1` [Compound 90, (S)-2-((S)-sec-butyl)-1-(6-oxo-1,6-dihydropyridine-3-carbonyl)-1,4-dihydropyrido[3,4-b]pyrazin-3(2H)-one], the AC1.4 came to 0.71 µM. Next, `CC[C@H](C)[C@H]1C(=O)Nc2ccccc2N1C(=O)N1CCC[C@H](O)C1` [Compound 114, (S)-3-((S)-sec-butyl)-4-((S)-3-hydroxypiperidine-1-carbonyl)-3,4-dihydroquinoxalin-2(1H)-one]: 1.69 µM; `CCC[C@H]1C(=O)Nc2ccccc2N1C(=O)c1ccc(F)nc1` [Compound 6, (S)-4-(6-fluoronicotinoyl)-3-propyl-3,4-dihydroquinoxalin-2(1H)-one]: 2.19 µM. Turning to `CCC[C@H]1C(=O)Nc2ccccc2N1C(=O)c1ccc(N(C)CC)nc1` [Compound 33, (S)-4-(6-(ethyl(methyl)amino)nicotinoyl)-3-propyl-3,4-dihydroquinoxalin-2(1H)-one], the AC1.4 was found to be 0.95 µM.

Regarding `CCC[C@H]1C(=O)Nc2ccccc2N1C(=O)c1conc1C` [Compound 14, (S)-4-(3-methylisoxazole-4-carbonyl)-3-propyl-3,4-dihydroquinoxalin-2(1H)-one], the AC1.4 came to 1.66 µM.

In the case of `CCC[C@H]1C(=O)Nc2ccccc2N1C(=O)Nc1ccccc1F` [Compound 56, (S)-N-(2-fluorophenyl)-3-oxo-2-propyl-3,4-dihydroquinoxaline-1(2H)-carboxamide], the AC1.4 turned out to be 0.42 µM. Consider `CCC[C@H]1C(=O)Nc2ccccc2N1C(=O)c1ccc(OC(F)F)nc1` [Compound 24, (S)-4-(6-(difluoromethoxy)nicotinoyl)-3-propyl-3,4-dihydroquinoxalin-2(1H)-one], for which the AC1.4 worked out at 0.4 µM. Next, `CC(C)[C@H]1C(=O)Nc2cccnc2N1C(=O)c1ccc(=O)n(C)c1` [Compound 87, (S)-3-isopropyl-4-(1-methyl-6-oxo-1,6-dihydropyridine-3-carbonyl)-3,4-dihydropyrido[2,3-b]pyrazin-2(1H)-one]: 2.15 µM; `CCC[C@H]1C(=O)Nc2cccc(Br)c2N1C(=O)c1cnn(C)c1` [Compound 69, (S)-5-bromo-4-(1-methyl-1H-pyrazole-4-carbonyl)-3-propyl-3,4-dihydroquinoxalin-2(1H)-one]: 1.52 µM. Next, `CCC[C@H]1C(=O)Nc2ccccc2N1C(=O)c1cnn(C2CCC2)c1` [Compound 32, (S)-4-(1-cyclobutyl-1H-pyrazole-4-carbonyl)-3-propyl-3,4-dihydroquinoxalin-2(1H)-one]: 0.71 µM; `CCC[C@H]1C(=O)Nc2cccc(Br)c2N1C(=O)c1ccc(Cl)nc1` [Compound 4, (S)-5-bromo-4-(6-chloronicotinoyl)-3-propyl-3,4-dihydroquinoxalin-2(1H)-one]: 0.72 µM; `CCC[C@H]1C(=O)Nc2ccccc2N1C(=O)Nc1ccccc1C` [Compound 60, (S)-3-oxo-2-propyl-N-(o-tolyl)-3,4-dihydroquinoxaline-1(2H)-carboxamide]: 0.82 µM.
